In patent US20180353472A1, “UNIT DOSE FORMULATIONS FOR USE AS AN ANTI-FUGETACTIC AGENT” (THE GENERAL HOSPITAL CORPORATION d.b.a MASSACHUSETTS …, priority 2015, published 2018):

Assays:
[1] = system: breast cancer tumor which over-expresses CXCL12; conditions: human patient, dose between 0.000001% and 65% of the dose appropriate for recruiting stem cells, once a day for five days, optionally followed by a chemotherapeutic drug
Method: A human patient with a breast cancer tumor which over-expresses CXCL12 is administered AMD3100 at a dose between 0.000001% and 65% of the dose appropriate for recruiting stem cells once a day for five days, optionally followed by a chemotherapeutic drug.

[2] = system: tumor that expresses high levels of CXCL12; conditions: mice, subcutaneous, dose between 0.000001% and 65% of the dose appropriate for recruiting stem cells, once a day for 5 days; assessed one to three days after final dose
Method: Mice are injected with tumor cells (subcutaneous injection) from a tumor that expresses high levels of CXCL12 and a tumor is allowed to develop.
One to three days after the final AMD3100 dose, mice are assessed for tumor growth and the reduction or knock down of fugetaxis.

`c1cc(CN2CCCNCCNCCCNCC2)ccc1CN1CCCNCCNCCCNCC1` [AMD3100, 1, 1′-[1,4-phenylenebis (methylene)]-bis-1,4,8,11-tetraazacyclotetradecane] was tested, and the “T cell recruitment into the tumor” value [1] was “increased T cell recruitment into the tumor”, the patient survival [1] was “increase in patient survival” and the tumor volume [1] was “decrease in tumor volume”. The “anti-fugetactic effect (reduction or knock down of fugetaxis)” value [2] was “will have an anti-fugetactic effect”.
